Assays:
PDI = conditions: insulin turbidimetry, cited from earlier work; for inhibition of PDI (in words): ref Jasuja et al., 2012
washed platelets [1] = assay: Washed platelet aggregation (myricetin, gallic acid); assay type: cell-based, human; conditions: for inhibition of platelet aggregation (in words): 75-300 μM; for inhibition at 30 µM: Homo sapiens, Platelet
Experimental: Whole blood was centrifuged at 250 × g for 10 min at 22°C to obtain PRP. To obtain washed platelets (WP), PRP was centrifuged twice (1,000 × g, 10 min, 20°C) in the presence of 1.25 μg/ml prostacyclin. The final platelet pellet was resuspended in modified Tyrode's-HEPES buffer, (20 mM N-2-hydroxyethylpiperazine-N'-2-ethanesulfonic acid, 5 mM glucose, 134 mM NaCl, 0.34 mM Na2HPO4, 2.9 mM KCl, 12 mM NaHCO3, and 1 mM MgCl2, pH 7.3) and rested for 30 min at 30°C before experiments. All protocols using human blood samples were approved by the Research Ethics Committees of the Federal University of […] and the University of Reading. PRP and WP aggregation assays were performed in a four-channel aggregometer (Helena Biosciences, […], England). […] Aggregation traces from at least three different donors were recorded for 5 min.

washed platelets [2] = assay: Flow cytometry: fibrinogen binding and P-selectin exposure; assay type: cell-based, human
Experimental: Whole blood was centrifuged at 250 × g for 10 min at 22°C to obtain PRP. To obtain washed platelets (WP), PRP was centrifuged twice (1,000 × g, 10 min, 20°C) in the presence of 1.25 μg/ml prostacyclin. The final platelet pellet was resuspended in modified Tyrode's-HEPES buffer, (20 mM N-2-hydroxyethylpiperazine-N'-2-ethanesulfonic acid, 5 mM glucose, 134 mM NaCl, 0.34 mM Na2HPO4, 2.9 mM KCl, 12 mM NaHCO3, and 1 mM MgCl2, pH 7.3) and rested for 30 min at 30°C before experiments. All protocols using human blood samples were approved by the Research Ethics Committees of the Federal University of […] and the University of Reading. WP (2-3 × 10^8 platelets/ml) were incubated with PESc at the same concentrations and conditions used for platelet aggregation experiments. Then WP were incubated for 10 min with thrombin (0.02 U/ml). FITC-conjugated PAC-1 antibody was added for 10 min in the dark and fluorescence read using a flow cytometer FACS Calibur (BD Biosciences, Franklin Lakes, USA). […] FITC-conjugated fibrinogen and PE/Cy5-conjugated anti-human CD62P were incubated for 30 min, then platelets were read after a 25-fold dilution with Tyrodes-HEPES buffer.

washed platelets [3] = assay: Platelet spreading on collagen or fibrinogen; assay type: cell-based, human
Experimental: Non-adhered platelets were removed and the coverslip washed three times with PBS. Adhered platelets were fixed using 0.2% paraformaldehyde for 10 min. This solution was then removed and coverslips washed three times with PBS before the addition of 0.1% (v/v) Triton-X to permeabilize the cells. […] Coverslips were mounted onto microscope glass slides and imaged using a 100× oil immersion lens on a Nikon A1-R Confocal microscope.

[4] = test system: whole blood on collagen-coated Vena8 bio-chips; assay: Thrombus formation under flow; assay type: cell-based, human; conditions: 30 µM, shear rate 45 dyn/cm^2, 10 min
Experimental: Fluorescence intensity was calculated using NIS Elements Software (Nikon, Tokyo, Japan).

VASP (Ser239) = VASP (Ser239) phosphorylation immunoblotting; assay type: cell-based, human; conditions: resting washed platelets, 7.5, 15 and 30 μM, 10 min
Experimental: After protein separation, semi-dry transfer was performed at 15V for 2 h using a BioRad Trans-blot semidry blotter. Membranes were blocked with 5% bovine serum albumin (BSA) for 1 h and incubated with primary antibodies against VASP ([…]) or GAPDH at 1:1,000 v/v dilution overnight. After washing the primary antibody off, […] secondary antibody was incubated for 1 h at room temperature at 1:4,000 v/v dilution. Membranes were visualized using a Typhoon imaging system (GE Healthcare, Hatfield, UK).

recombinant ERp72 = target: T1, recombinant ERp72 (Homo sapiens, UniProt P13667); assay: Protein fluorescence quenching, ERp72; assay type: binding
T1 sequence (P13667 21-645): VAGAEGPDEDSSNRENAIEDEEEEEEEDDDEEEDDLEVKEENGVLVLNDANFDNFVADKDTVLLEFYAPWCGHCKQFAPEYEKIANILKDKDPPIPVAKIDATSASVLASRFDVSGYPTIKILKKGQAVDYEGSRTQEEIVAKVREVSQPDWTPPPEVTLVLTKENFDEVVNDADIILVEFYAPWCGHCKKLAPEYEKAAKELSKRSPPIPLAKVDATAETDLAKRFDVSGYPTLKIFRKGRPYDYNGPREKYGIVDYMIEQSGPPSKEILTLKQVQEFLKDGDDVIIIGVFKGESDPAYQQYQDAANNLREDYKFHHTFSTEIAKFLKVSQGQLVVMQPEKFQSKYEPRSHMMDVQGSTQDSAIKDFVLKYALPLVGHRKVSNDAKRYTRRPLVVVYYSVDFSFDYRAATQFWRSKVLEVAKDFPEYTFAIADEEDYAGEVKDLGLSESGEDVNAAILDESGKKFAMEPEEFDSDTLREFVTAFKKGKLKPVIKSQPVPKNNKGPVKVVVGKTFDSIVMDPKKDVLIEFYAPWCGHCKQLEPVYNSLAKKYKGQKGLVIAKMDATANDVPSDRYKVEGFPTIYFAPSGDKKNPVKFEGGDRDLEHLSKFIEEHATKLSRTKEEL

recombinant PDI [5] = target: T2, recombinant PDI (Homo sapiens, UniProt P07237); assay: Reductase activity (Di-E-GssG), PDI; assay type: biochemical; conditions: PDI 2 µM, myricetin 0.01–10 µM, Di-E-GssG probe
T2 sequence (P07237 18-508): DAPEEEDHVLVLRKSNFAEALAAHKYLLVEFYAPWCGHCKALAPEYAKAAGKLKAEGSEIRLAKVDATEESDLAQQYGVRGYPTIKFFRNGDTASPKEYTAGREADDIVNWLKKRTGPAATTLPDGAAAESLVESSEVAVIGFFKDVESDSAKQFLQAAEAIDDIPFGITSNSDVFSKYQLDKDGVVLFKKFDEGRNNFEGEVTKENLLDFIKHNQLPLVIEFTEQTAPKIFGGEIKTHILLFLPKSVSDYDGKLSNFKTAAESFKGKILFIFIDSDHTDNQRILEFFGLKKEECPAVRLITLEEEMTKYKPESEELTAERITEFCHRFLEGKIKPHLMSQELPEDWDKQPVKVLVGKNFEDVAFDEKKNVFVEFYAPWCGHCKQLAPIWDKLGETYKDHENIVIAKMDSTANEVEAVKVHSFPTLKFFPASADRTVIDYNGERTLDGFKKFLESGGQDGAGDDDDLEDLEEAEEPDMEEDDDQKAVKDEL

recombinant ERp5 [6] = target: T3, recombinant ERp5 (Homo sapiens, UniProt Q15084); assay: Reductase activity (Di-E-GssG), ERp5; assay type: biochemical; conditions: ERp5 2 µM, myricetin 0.01–10 µM, Di-E-GssG probe
T3 sequence (Q15084 20-440): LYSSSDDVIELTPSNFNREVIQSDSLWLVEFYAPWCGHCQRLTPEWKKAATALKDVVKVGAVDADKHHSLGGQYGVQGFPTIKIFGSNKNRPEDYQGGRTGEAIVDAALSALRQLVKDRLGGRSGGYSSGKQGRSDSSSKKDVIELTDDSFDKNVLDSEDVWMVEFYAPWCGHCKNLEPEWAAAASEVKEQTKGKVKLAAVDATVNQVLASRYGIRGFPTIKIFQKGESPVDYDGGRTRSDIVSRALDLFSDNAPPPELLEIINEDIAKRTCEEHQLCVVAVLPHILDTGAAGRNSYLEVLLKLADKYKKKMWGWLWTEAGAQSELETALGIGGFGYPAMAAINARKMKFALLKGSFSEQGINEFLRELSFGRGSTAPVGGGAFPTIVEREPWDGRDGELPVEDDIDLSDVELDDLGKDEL

recombinant ERp5 [7] = target: T3, recombinant ERp5; conditions: ERp5 2 µM, myricetin 0.01–10 µM, Mean ± SEM
recombinant PDI [8] = target: T2, recombinant PDI; conditions: Kq=KSV/τ0, τ0 10^-8 s
[9] = parameters: method as in Dang et al., 2014; conditions: rats, single oral dose of 100 mg/kg; ref Dang et al., 2014; cited from earlier work
recombinant ERp5 [10] = target: T3, recombinant ERp5; assay: biochemical
recombinant ERp57 = target: T4, recombinant ERp57 (Homo sapiens, UniProt P30101); assay: biochemical
T4 sequence (P30101 25-505): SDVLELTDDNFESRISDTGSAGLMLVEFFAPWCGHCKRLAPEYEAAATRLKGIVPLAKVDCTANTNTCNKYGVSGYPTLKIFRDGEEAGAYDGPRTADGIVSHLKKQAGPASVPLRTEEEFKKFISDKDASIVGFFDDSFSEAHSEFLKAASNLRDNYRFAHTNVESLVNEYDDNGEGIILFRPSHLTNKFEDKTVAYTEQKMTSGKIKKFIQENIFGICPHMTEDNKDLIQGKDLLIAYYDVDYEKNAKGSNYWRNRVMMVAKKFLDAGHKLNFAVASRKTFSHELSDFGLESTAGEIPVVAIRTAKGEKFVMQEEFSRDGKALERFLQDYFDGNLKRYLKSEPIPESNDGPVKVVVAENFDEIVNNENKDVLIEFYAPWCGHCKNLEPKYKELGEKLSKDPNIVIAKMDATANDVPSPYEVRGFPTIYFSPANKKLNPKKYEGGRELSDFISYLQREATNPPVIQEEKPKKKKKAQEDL

recombinant PDI [11] = target: T2, recombinant PDI; assay: biochemical

SMILES: O=c1c(O)c(-c2ccc(O)c(O)c2)oc2cc(O)cc(O)c12 [Quercetin, quercetin]
- inhibition of PDI (in words) (PDI): weak inhibitor of PDI

SMILES: C[C@@H]1O[C@@H](OC[C@H]2O[C@@H](Oc3c(-c4ccc(O)c(O)c4)oc4cc(O)cc(O)c4c3=O)[C@H](O)[C@@H](O)[C@@H]2O)[C@H](O)[C@H](O)[C@H]1O [rutin]
- inhibition of PDI (in words) (PDI): potent inhibitors of PDI reductase activity

SMILES: O=C(O)c1cc(O)c(O)c(O)c1 [Gallic acid, gallic acid]
- inhibition of platelet aggregation (in words) (washed platelets [1]; TRAP-6-induced): unable to inhibit platelet aggregation, except at the higher concentration used (300 μM)
- inhibition of platelet aggregation (in words) (washed platelets [1]; collagen-induced): unable to inhibit platelet aggregation
- fibrinogen binding (in words) (washed platelets [2]; CRP-activated washed platelets, 150 μM): only able to reduce fibrinogen binding when incubated at 150 μM

SMILES: O=c1c(O)c(-c2cc(O)c(O)c(O)c2)oc2cc(O)cc(O)c12 [Myricetin]
- inhibition at 30 µM (washed platelets [1]; TRAP-6-induced): ~60%
- inhibition at 30 µM (washed platelets [1]; collagen-induced): ~80%
- fibrinogen binding (in words) (washed platelets [2]; CRP-activated washed platelets, 15 μM): abolish
- fibrinogen binding (in words) (washed platelets [2]; TRAP-6-activated washed platelets): still inhibited fibrinogen binding
- inhibition at 30 µM (washed platelets [3]; Homo sapiens, Platelet, collagen-coated coverslips, 30 μM): ~25%
- platelet spreading (in words) (washed platelets [3]; fibrinogen-coated coverslips, 7.5-30 μM): no effect
- thrombus formation (fluorescence intensity) (in words) [4]: decreased thrombus formation
- VASP phosphorylation (in words) (VASP (Ser239)): did not induce VASP phosphorylation
- K SV (Stern-Volmer constant) (recombinant ERp72; ERp72 2 µM, myricetin 0.01–10 µM, Mean ± SEM): 27,515 ± 5,675 M^-1
- Kq (quenching rate constant) (recombinant ERp72; ERp72, Kq=KSV/τ0, τ0 10^-8 s): 2.75e+12 M⁻¹ s⁻¹
- K b (binding constant) (recombinant ERp72; ERp72, determined for highest concentration tested): 394000 M⁻¹
- Kd (recombinant ERp72; read-out: K d (dissociation constant)): 2530 nM
- inhibition of reductase activity (in words) (recombinant PDI [5]): inhibit both PDI and ERp5, being more potent against PDI
- inhibition of reductase activity (in words) (recombinant ERp5 [6]): inhibit both PDI and ERp5
- K SV (Stern-Volmer constant) (recombinant ERp5 [7]): 48,750 ± 9,554 M^-1
- Kq (quenching rate constant) (recombinant PDI [8]): 2.12e+12 M⁻¹ s⁻¹
- peak plasma concentration [9]: 10 µM
- Kd (recombinant ERp5 [10]): 1740 nM
- Kd (recombinant ERp57): 1830 nM
- Kd (recombinant PDI [11]): 4260 nM

SMILES: O=c1c(O[C@@H]2O[C@H](CO)[C@@H](O)[C@H](O)[C@H]2O)c(-c2ccc(O)c(O)c2)oc2cc(O)cc(O)c12 [isoquercetin]
- inhibition of PDI reductase activity (in words) (PDI; ref Stopa et al., 2017): potent inhibitors of PDI reductase activity

From paper PMC7011086 (Frontiers in Pharmacology, 2020)
